According to patent US8552220B2, “Therapeutic agent for Alzheimer's disease” (Tokyo Institute of Technology, priority 2008, dated 2013):

**Q.** For `O=C(/C=C/c1ccc(O)cc1)CC(=O)/C=C/c1ccccc1-c1cnnn1Cc1ccccc1` [CU645, (1E,6E)-1-[2-(1-benzyl-1H-1,2,3-triazol-5-yl)phenyl]-7-(4-hydroxyphenyl)hepta-1,6-diene-3,5-dione], which melting point is on record?
**A.** The melting point was 205 to 215 °C.

**Q.** Which melting point does the source give for `COc1cc(Br)c(/C=C/C(=O)CC(=O)/C=C/c2ccc(O)cc2)cc1O` [CU543, (1E,6E)-1-(2-bromo-5-hydroxy-4-methoxyphenyl)-7-(4-hydroxyphenyl)hepta-1,6-diene-3,5-dione] here?
**A.** The melting point was 224 to 229 °C.

**Q.** For `O=C(/C=C/c1ccc(O)cc1)CC(=O)/C=C/c1cc(Br)ccc1F` [CU466, (1E,6E)-1-(5-bromo-2-fluorophenyl)-7-(4-hydroxyphenyl)hepta-1,6-diene-3,5-dione], which melting point is on record?
**A.** Its melting point is 177 to 203 °C.

**Q.** With `COc1cc(/C=C/C(=O)CC(=O)/C=C/c2ccc(O)cc2)c(Br)c(Br)c1O` [CU652, (1E,6E)-1-(2,3-dibromo-4-hydroxy-5-methoxyphenyl)-7-(4-hydroxyphenyl)hepta-1,6-diene-3,5-dione] as the molecule, how does the melting point read?
**A.** Its melting point is 215 to 218 °C.

**Q.** For `CCOc1ccccc1-c1ccc(O)cc1/C=C/C(=O)CC(=O)/C=C/c1ccc(O)cc1` [CU643, (1E,6E)-1-(2′-ethoxy-4-hydroxybiphenyl-2-yl)-7-(4-hydroxyphenyl)hepta-1,6-diene-3,5-dione], which melting point is on record?
**A.** The melting point was 111 to 115 °C.

**Q.** For `O=C(/C=C/c1ccc(O)cc1)CC(=O)/C=C/c1cc(OCc2c(F)cccc2Cl)ccc1[N+](=O)[O-]` [CU492, (1E,6E)-1-[5-(2-chloro-6-fluorobenzyloxy)-2-nitrophenyl]-7-(4-hydroxyphenyl)hepta-1,6-diene-3,5-dione], which melting point is on record?
**A.** Its melting point is 180 to 183 °C.

**Q.** With `CN(C)CCOc1ccc(/C=C/C(=O)CC(=O)/C=C/c2ccc(O)cc2)c(Cl)c1` [CU551, (1E,6E)-1-[2-chloro-4-(2-dimethylaminoethoxy)phenyl]-7-(4-hydroxyphenyl)hepta-1,6-diene-3,5-dione] as the molecule, how does the melting point read?
**A.** The melting point was 170 to 173 °C.

**Q.** Which melting point does the source give for `O=C(/C=C/c1ccc(O)cc1)CC(=O)/C=C/c1ccccc1Cl` [CU624, (1E,6E)-1-(2-chlorophenyl)-7-(4-hydroxyphenyl)hepta-1,6-diene-3,5-dione] here?
**A.** Its melting point is 158 to 161 °C.

**Q.** With `O=C(/C=C/c1cc(O)ccc1[N+](=O)[O-])CC(=O)/C=C/c1cc(O)ccc1[N+](=O)[O-]` as the molecule, how does the melting point read?
**A.** Its melting point is 253 to 262 °C.

**Q.** For `COc1cc(O)ccc1/C=C/C(=O)CC(=O)/C=C/c1cc(OCc2ccccc2)ccc1[N+](=O)[O-]` [CU594, (1E,6E)-1-(5-benzyloxy-2-nitrophenyl)-7-(4-hydroxy-2-methoxyphenyl)hepta-1,6-diene-3,5-dione], which melting point is on record?
**A.** Its melting point is 183 to 186 °C.

**Q.** With `CN(C)c1ccc(/C=C/C(=O)CC(=O)CCc2ccc(O)cc2)c(C(F)(F)F)c1` [CU556, (E)-1-(4-dimethylamino-2-trifluoromethylphenyl)-7-(4-hydroxyphenyl)hept-1-ene-3,5-dione] as the molecule, how does the melting point read?
**A.** Its melting point is 110 to 114 °C.

**Q.** With `O=C(/C=C/c1ccc(O)cc1)CC(=O)/C=C/c1cc(OCc2ccccc2)ccc1-c1ccccc1` [CU527, (1E,6E)-1-(4-benzyloxybiphenyl-2-yl)-7-(4-hydroxyphenyl)hepta-1,6-diene-3,5-dione] as the molecule, how does the melting point read?
**A.** Its melting point is 172 to 178 °C.

**Q.** For `COc1cc(/C=C/C(=O)CC(=O)/C=C/c2cc(O)ccc2[N+](=O)[O-])ccc1O` [CU132, (1E,6E)-1-(4-hydroxy-3-methoxyphenyl)-7-(5-hydroxy-2-nitrophenyl)hepta-1,6-diene-3,5-dione], which melting point is on record?
**A.** The melting point was 147 to 152 °C.

**Q.** With `O=C(/C=C/c1ccc(O)cc1)CC(=O)/C=C/c1ccccc1-c1cn(Cc2ccccc2)nn1` [CU644, (1E,6E)-1-[2-(1-benzyl-1H-1,2,3-triazol-4-yl)phenyl]-7-(4-hydroxyphenyl)hepta-1,6-diene-3,5-dione] as the molecule, how does the melting point read?
**A.** The melting point was 103 to 109 °C.

**Q.** Which melting point does the source give for `O=C(/C=C/c1ccc(O)cc1)CC(=O)/C=C/c1cc(O)ccc1F` [CU621, (1E,6E)-1-(2-fluoro-5-hydroxyphenyl)-7-(4-hydroxyphenyl)hepta-1,6-diene-3,5-dione] here?
**A.** The melting point was 205 to 209 °C.

**Q.** With `O=C(/C=C/c1ccc(O)cc1)CC(=O)/C=C/c1ccc(Br)cc1F` [CU471, (1E,6E)-1-(4-bromo-2-fluorophenyl)-7-(4-hydroxyphenyl)hepta-1,6-diene-3,5-dione] as the molecule, how does the melting point read?
**A.** Its melting point is 223 to 232 °C.

**Q.** With `O=C(/C=C/c1ccc(O)cc1)CC(=O)/C=C/c1ccccc1-c1ccc2ccccc2c1` [CU529, (1E,6E)-1-(4-hydroxyphenyl)-7-[2-(naphthalen-2-yl)phenyl]hepta-1,6-diene-3,5-dione] as the molecule, how does the melting point read?
**A.** The melting point was 105 to 114 °C.

**Q.** Which melting point does the source give for `O=C(/C=C/c1ccc2cc[nH]c2c1)CC(=O)/C=C/c1cc(O)ccc1-c1ccccc1` [CU604, (1E,6E)-1-(4-hydroxybiphenyl-2-yl)-7-(1H-indol-6-yl)hepta-1,6-diene-3,5-dione] here?
**A.** The melting point was 185 to 191 °C.

**Q.** Which melting point does the source give for `CN(C)c1ccc(/C=C/C(=O)CC(=O)/C=C/c2ccc3cc[nH]c3c2)c([N+](=O)[O-])c1` [CU592, (1E,6E)-1-(4-dimethylamino-2-nitrophenyl)-7-(1H-indol-6-yl)hepta-1,6-diene-3,5-dione] here?
**A.** Its melting point is 196 to 201 °C.

**Q.** For `O=C(/C=C/c1cc(O)ccc1Br)CC(=O)/C=C/c1ccccc1C(F)(F)F` [CU615, (1E,6E)-1-(2-bromo-5-hydroxyphenyl)-7-(2-trifluoromethylphenyl)hepta-1,6-diene-3,5-dione], which melting point is on record?
**A.** The melting point was 66 to 70 °C.

**Q.** For `O=C(/C=C/c1ccc(O)cc1)CC(=O)/C=C/c1ccccc1F` [CU622, (1E,6E)-1-(2-fluorophenyl)-7-(4-hydroxyphenyl)hepta-1,6-diene-3,5-dione], which melting point is on record?
**A.** The melting point was 146 to 150 °C.

**Q.** With `CN(C)c1ccc(/C=C/C(=O)CC(=O)CCc2ccc(O)cc2)c([N+](=O)[O-])c1` [CU523, (E)-1-(4-dimethylamino-2-nitrophenyl)-7-(4-hydroxyphenyl)hept-1-ene-3,5-dione] as the molecule, how does the melting point read?
**A.** Its melting point is 136 to 142 °C.

**Q.** With `O=C(/C=C/c1cc(O)ccc1Br)CC(=O)/C=C/c1cc(O)ccc1Br` [CU614, (1E,6E)-1,7-bis(2-bromo-5-hydroxyphenyl)hepta-1,6-diene-3,5-dione] as the molecule, how does the melting point read?
**A.** The melting point was 239 to 243 °C.

**Q.** Which melting point does the source give for `O=C(/C=C/c1ccc(O)cc1Cl)CC(=O)/C=C/c1cc(O)ccc1[N+](=O)[O-]` [CU611, (1E,6E)-1-(2-chloro-4-hydroxyphenyl)-7-(5-hydroxy-2-nitrophenyl)hepta-1,6-diene-3,5-dione] here?
**A.** Its melting point is 132 to 136 °C.

**Q.** With `CN(C)c1ccc(/C=C/C(=O)CC(=O)/C=C/c2ccc(N(C)C)cc2Cl)c(Cl)c1` [CU412, (1E,6E)-1,7-bis(2-chloro-4-dimethylaminophenyl)hepta-1,6-diene-3,5-dione] as the molecule, how does the melting point read?
**A.** The melting point was 238 to 241 °C.

**Q.** Which melting point does the source give for `O=C(/C=C/c1ccc(O)cc1)CC(=O)/C=C/c1ccc(N2CCN(c3ccccc3)CC2)cc1Br` [CU1095, (1E,6E)-1-[2-bromo-4-(4-phenylpiperazin-1-yl)phenyl]-7-(4-hydroxyphenyl)hepta-1,6-diene-3,5-dione] here?
**A.** Its melting point is 195 to 204 °C.

**Q.** With `COc1cc(O)ccc1/C=C/C(=O)CC(=O)/C=C/c1ccc(O)cc1Cl` [CU600, (1E,6E)-1-(2-chloro-4-hydroxyphenyl)-7-(4-hydroxy-2-methoxyphenyl)hepta-1,6-diene-3,5-dione] as the molecule, how does the melting point read?
**A.** The melting point was 206 to 211 °C.

**Q.** Which melting point does the source give for `COc1ccc(/C=C/C(=O)CC(=O)/C=C/c2cc(O)ccc2[N+](=O)[O-])cc1O` [CU133, (1E,6E)-1-(3-hydroxy-4-methoxyphenyl)-7-(5-hydroxy-2-nitrophenyl)hepta-1,6-diene-3,5-dione] here?
**A.** The melting point was 107 to 111 °C.

**Q.** For `O=C(/C=C/c1ccc2cc[nH]c2c1)CC(=O)/C=C/c1cc(O)ccc1Br` [CU562, (1E,6E)-1-(2-bromo-5-hydroxyphenyl)-7-(1H-indol-6-yl)hepta-1,6-diene-3,5-dione], which melting point is on record?
**A.** Its melting point is 196 to 200 °C.

**Q.** For `Cc1ccccc1-c1ccc(O)cc1/C=C/C(=O)CC(=O)/C=C/c1ccc(O)cc1` [CU642, (1E,6E)-1-(4-hydroxy-2′-methylbiphenyl-2-yl)-7-(4-hydroxyphenyl)hepta-1,6-diene-3,5-dione], which melting point is on record?
**A.** Its melting point is 173 to 177 °C.

**Q.** For `O=C(/C=C/c1cc(O)ccc1-c1cccc2ccccc12)CC(=O)CCc1ccc(O)cc1` [CU542, (E)-1-[5-hydroxy-2-(naphthalen-1-yl)phenyl]-7-(4-hydroxyphenyl)hept-1-ene-3,5-dione], which melting point is on record?
**A.** The melting point was 138 to 142 °C.

**Q.** Which melting point does the source give for `O=C(/C=C/c1cc(O)ccc1Br)CC(=O)/C=C/c1cc(O)ccc1-c1ccccc1` [CU616, (1E,6E)-1-(2-bromo-5-hydroxyphenyl)-7-(4-hydroxybiphenyl-2-yl)hepta-1,6-diene-3,5-dione] here?
**A.** Its melting point is 101 to 104 °C.

**Q.** With `COc1cc(/C=C/C(=O)CC(=O)/C=C/c2ccc(O)cc2)c(Br)cc1O` [CU539, (1E,6E)-1-(2-bromo-4-hydroxy-5-methoxyphenyl)-7-(4-hydroxyphenyl)hepta-1,6-diene-3,5-dione] as the molecule, how does the melting point read?
**A.** The melting point was 237 to 242 °C.

**Q.** Which melting point does the source give for `CN(C)C(=O)c1ccccc1/C=C/C(=O)CC(=O)/C=C/c1ccc(O)cc1` [CU479, (1E,6E)-1-[2-(dimethylaminocarbonyl)phenyl]-7-(4-hydroxyphenyl)hepta-1,6-diene-3,5-dione] here?
**A.** The melting point was 210 to 218 °C.

**Q.** For `O=C(/C=C/c1ccc(O)cc1)CC(=O)/C=C/c1cc(Cl)ccc1[N+](=O)[O-]` [CU465, (1E,6E)-1-(5-chloro-2-nitrophenyl)-7-(4-hydroxyphenyl)hepta-1,6-diene-3,5-dione], which melting point is on record?
**A.** Its melting point is 241 to 250 °C.

**Q.** With `O=C(/C=C/c1ccc2cc[nH]c2c1)CC(=O)/C=C/c1ccc(O)cc1Cl` [CU601, (1E,6E)-1-(2-chloro-4-hydroxyphenyl)-7-(1H-indol-6-yl)hepta-1,6-diene-3,5-dione] as the molecule, how does the melting point read?
**A.** The melting point was 182 to 186 °C.

**Q.** For `O=C(/C=C/c1ccc(O)cc1)CC(=O)/C=C/c1cc(OCc2ccc(Cl)cc2Cl)ccc1[N+](=O)[O-]` [CU493, (1E,6E)-1-[5-(2,4-dichlorobenzyloxy)-2-nitrophenyl]-7-(4-hydroxyphenyl)hepta-1,6-diene-3,5-dione], which melting point is on record?
**A.** The melting point was 157 to 161 °C.

**Q.** Which melting point does the source give for `O=C(/C=C/c1ccc(O)cc1)CC(=O)/C=C/c1ccc(O)cc1Br` [CU671, (1E,6E)-1-(2-bromo-4-hydroxyphenyl)-7-(4-hydroxyphenyl)hepta-1,6-diene-3,5-dione] here?
**A.** Its melting point is 196 to 205 °C.

**Q.** For `O=C(/C=C/c1ccc(O)cc1)CC(=O)/C=C/c1cc(O)c(Br)cc1Br` [CU544, (1E,6E)-1-(2,4-dibromo-5-hydroxyphenyl)-7-(4-hydroxyphenyl)hepta-1,6-diene-3,5-dione], which melting point is on record?
**A.** Its melting point is 255 to 259 °C.
